Counter-ions that a name gives are not always drawn. Like-named read-outs stand apart in the source and are kept apart here.
Key:
[1] = system: pupil; conditions: bunazosin at 0.3%; cited from earlier work
[2] = system: conjunctival hyperemia; conditions: bunazosin at 0.3%; cited from earlier work
[3] = system: intraocular pressure; conditions: bunazosin at 0.3%; measured 6 hours post instillation; cited from earlier work
[4] = system: surface vasoconstriction; conditions: brimonidine 0.01% to 0.05% weight by volume, particularly 0.01% to […]
[5] = system: pupil size; conditions: for Onset of pupil reduction / Pupil reduction at 1 hour (mm) / Range (pupil size) at 3 hours: brimonidine […], pH 7.0 q am
Procedure: The pupil size was measured at the baseline and then 10 minutes and 3 hours after instillation for 3 consecutive weeks.

[6] = system: pupil dilation
[7] = system: eye redness; conditions: brimonidine […]; for Redness (from 0 to 4) (right eye): pH 7.0 to right eye
From the text: (§1) All pupil measurements were made using Marco video monitor pupillometry in a darkened room, which was captured via digital image capture and monitor adjustable caliper measurement. Once the dark adapted pupil was digitially captured, the instrument allows superiposition of a caliper with 0.1 mm increments to measure the pupil diameter.

[8] = system: scotopic pupil; conditions: brimonidine […]; for % reduction of scotopic pupil size (left eye) / Scotopic pupil size (mm) (left eye): contralateral control left eye, pH 7.0 to right eye; for % reduction of scotopic pupil size (right eye) / Scotopic pupil size (mm) (right eye): treated right eye, pH 7.0
From the text: as §1

[9] = system: pupil size in dim light; conditions: cited from earlier work
[10] = cited from earlier work; for side effects upon application: in vivo; for floppy iris syndrome: systemic or topical α1-adrenoceptor antagonist (Oshika et al)
[11] = pH 7.1; with added constituents of a balanced salt solution
From the text: The terms “salt” and “constituent of a balanced salt solution” are used interchangeably for the purposes of the present invention. They are a subset of agents that improve solubility of the inventive formulations.

[12] = Day 2.1 (follows 20 days of consecutive use)

## CCCC(=O)N1CCCN(c2nc(N)c3cc(OC)c(OC)cc3n2)CC1 [Bunazosin]
[1]
  pupil reduction: about 1.0 mm
[2]
  duration before return to baseline: about 24 hours
  mean conjunctival hyperemia score: 1.5 /4
[3]
  intraocular pressure reduction: about 20%

## Brc1c(NC2=NCCN2)ccc2nccnc12.O=C(O)C(O)C(O)C(=O)O [brimonidine, 5-bromo-6-(2-imidazolin-2-ylamino)quinoxaline D-tartrate]
[4]
  surface vasoconstriction, redness and whiteness versus equivalent concentration of oxymetazoline: improved surface vasoconstriction, reduced surface redness, and improved whiter appearance
[5]; baseline before instillation, dark conditions
  Baseline pupil size: 6.2 mm
[5]; one eye, Day 1-20 Avg
  Onset of pupil reduction: 10 to 15 min
[5]; Day 1-20 Avg
  Pupil reduction at 1 hour (mm): ≥ 1 mm
  Range (pupil size) at 3 hours: 3.8-4.2
[5]; [12]
  Onset of pupil reduction: 10 to 15 min
  Pupil reduction at 1 hour (mm): ≥ 1 mm
  Range (pupil size) at 3 hours: 3.8-4.2
[6]; brimonidine […], pH 6.5, one individual who later responded at pH 7.1
  pupil effect in one individual: no pupil effect
[6]; brimonidine […], pH 7.1, one eye, 4 individuals
  treated patients with pupil modulation: 100%
[6]; topical brimonidine […], pH 6.5, one eye, 13 individuals, modest indoor lighting
  individuals who experienced reduced dilation: 2 individuals
[6]; topical brimonidine […], pH 6.5, 13 individuals
  treated patients with reduced dilation: 15.4%
[6]; topical brimonidine […], pH 7.1
  individuals with pupil modulation: 4 out of 4
[7]; pH 7.0, at 0.5 hr, 1.25 hr, 2.25 hr and 3.25 hr
  eye whitening in the right eye: significant eye whitening
[7]; time 0 hr (baseline)
  Redness (from 0 to 4) (right eye): 2
[7]; time 0.05 hr
  Redness (from 0 to 4) (right eye): 0
[7]; time 0.5 hr
  Redness (from 0 to 4) (right eye): 0
[7]; time 1.25 hr
  Redness (from 0 to 4) (right eye): 0
[7]; time 2.25 hr
  Redness (from 0 to 4) (right eye): 0
[7]; time 3.25 hr
  Redness (from 0 to 4) (right eye): 0
[8]; pH 7.0 applied to right eye
  pupil modulation in contralateral control (left eye): delayed but significant pupil modulation
[8]; time 0 hr (baseline)
  % reduction of scotopic pupil size (left eye): 0%
  Scotopic pupil size (mm) (left eye): 5 mm
  % reduction of scotopic pupil size (right eye): 0%
  Scotopic pupil size (mm) (right eye): 5 mm
[8]; time 0.05 hr
  % reduction of scotopic pupil size (left eye): 0%
  Scotopic pupil size (mm) (left eye): 5 mm
  % reduction of scotopic pupil size (right eye): 0%
  Scotopic pupil size (mm) (right eye): 5 mm
[8]; time 0.5 hr
  % reduction of scotopic pupil size (left eye): 0%
  Scotopic pupil size (mm) (left eye): 5 mm
  % reduction of scotopic pupil size (right eye): 10%
  Scotopic pupil size (mm) (right eye): 4.5 mm
[8]; time 1.25 hr
  % reduction of scotopic pupil size (left eye): 0%
  Scotopic pupil size (mm) (left eye): 5 mm
  % reduction of scotopic pupil size (right eye): 20%
  Scotopic pupil size (mm) (right eye): 4 mm
[8]; time 2.25 hr
  % reduction of scotopic pupil size (left eye): 20%
  Scotopic pupil size (mm) (left eye): 4 mm
  % reduction of scotopic pupil size (right eye): 30%
  Scotopic pupil size (mm) (right eye): 3.5 mm
[8]; time 3.25 hr
  % reduction of scotopic pupil size (left eye): 20%
  Scotopic pupil size (mm) (left eye): 4 mm
  % reduction of scotopic pupil size (right eye): 30%
  Scotopic pupil size (mm) (right eye): 3.5 mm

## Cc1ccccc1N1CCN(CCc2nnc3n2CCCC3)CC1 [dapiprazole, 5,6,7,8-tetrahydro-3-[2-(4-o,tolyl-1-piperazinypethyl]-8-triazolo[4,3-a]pyridine hydrochloride]
[9]; clinical application
  effect on pupil size in dim light: very little effect on pupil size in dim light
[10]
  side effects upon application: redness and frequently chemosis

## Cc1cccc([C@H](C)c2cnc[nH]2)c1C [dexmedetomidine]
[11]
  solubility: ≥ 0.1%

## CC[C@@H]1C(=O)OC[C@@H]1Cc1cncn1C [pilocarpine]
[9]; in vivo
  duration of effect: lasts only a few hours
[9]; when first applied
  pupil in dim light: below 3 mm
[10]
  side effects upon application: brow ache, ciliary muscle contraction and pseudo myopia (muscle spasm of accommodation), and redness

## C[C@H](Cc1cc2c(c(C(N)=O)c1)N(CCCO)CC2)NCCOc1ccccc1OCC(F)(F)F [sidolosin]
[10]
  floppy iris syndrome: floppy iris syndrome

## CCOc1ccccc1OCCN[C@H](C)Cc1ccc(OC)c(S(N)(=O)=O)c1 [tamsulosin]
[10]
  floppy iris syndrome: floppy iris syndrome
